This is an account of results in patent US20230150981A1, “N-HETEROARYLALKYL-2-(HETEROCYCLYL AND HETEROCYCLYLMETHYL) ACETAMIDE DERIVATIVES AS SSTR4 AGONISTS” (Takeda Pharmaceutical Compnay Limited, priority 2020, published 2023).

Molecules are shown by their SMILES.

The target in assay [1] is T1, SSTR4 (Homo sapiens, UniProt P31391).
T1 construct: host or cells: CHO-K1
Briefly: SSTR4 I-125 somatostatin competition binding assay (CHO-K1 membranes). The settings on record: competition with I-125 somatostatin, membranes from CHO-K1 overexpressing SSTR4; read-out: SSTR4 Binding pIC50 (converted). The method, then:
SSTR4 I-125 Somatostatin Competition Binding Assay
Membranes from CHO-K1 cells overexpressing SSTR4 are purchased from Perkin Elmer (catalog number ES-524-M400UA). Test compounds are suspended in DMSO and then diluted in assay buffer (25 mM HEPES pH 7.4, 10 mM MgCl2, 1 mM CaCl2), 0.5% BSA) plus 0.2 nM I-125 labeled somatostatin (Perkin Elmer catalog number NEX389). Fifty μL of compound/I-125 somatostatin in assay buffer are added per well to 96-well poly-propylene plate. Then 1 μg of SSTR4 membranes in 50 μL assay buffer are added per well. The Plate is incubated for 60 minutes at room temperature. FilterMat A filters (Perkin Elmer catalog number 1450-421) are pre-soaked in 0.5% PEI (Sigma catalog number P3143). The contents of the assay plate are transferred to filters with a TomTech harvester and washed 5 times with 20 mM HEPES, 100 mM NaCl. The filters are dried in a microwave oven then transferred to sample bag containing a scintillator sheet (Perkin Elmer catalog number 1450-441). The scintillator sheets are melted to filters using a heat block. The filters are then read in a MicroBeta scintillation counter. Binding Ki curves are generated using Activity Base for Screening Data Management and the results are reported as pIC50.

Assay [2] has as its target T2, SSTR1 (Homo sapiens, UniProt P30872).
T2 construct: purchased Perkin Elmer ES-520-M400UA; host or cells: CHO-K1 membranes
Briefly: SSTR1 I-125 somatostatin competition binding assay for selectivity versus SSTR1 (CHO-K1 membranes). The settings on record: competition with I-125 somatostatin, membranes from CHO-K1 overexpressing SSTR1; read-out: SSTR1 Binding pIC50 (converted). Here is the method:
SSTR1 I-125 Somatostatin Competition Binding Assay for Selectivity Versus SSTR1
Membranes from CHO-K1 cells overexpressing SSTR1 are purchased from Perkin Elmer (catalog number ES-520-M400UA). Test compounds are suspended in DMSO and then diluted in assay buffer (25 mM HEPES pH 7.4, 10 mM MgCl2, 1 mM CaCl2), 0.5% BSA) plus 0.4 nM I-125 labeled somatostatin (Perkin Elmer catalog number NEX389). Fifty μL of compound/I-125 somatostatin in assay buffer are added per well to 96-well poly-propylene plate. Then 10 μg of SSTR1 membranes in 50 μL assay buffer are added per well. The plate is incubated for 60 minutes at room temperature. FilterMat A filters (Perkin Elmer catalog number 1450-421) are pre-soaked in 0.5% PEI (Sigma catalog number P3143). The contents of the assay plate are transferred to filters with a TomTech harvester and washed 5 times with 20 mM HEPES, 100 mM NaCl. The filters are dried in a microwave oven then transferred to sample bag containing a scintillator sheet (Perkin Elmer catalog number 1450-441). The scintillator sheets are melted to the filters using a heat block. The filters are then read in a MicroBeta scintillation counter. Binding Ki curves are generated using Activity Base for Screening Data Management and the results are reported as pIC50.

Assay [3] concerns the target T1, SSTR4. Briefly: Inhibition of forskolin stimulated cAMP in CHO-K1 cells overexpressing SSTR4. Type of assay: cell-based. The settings on record: read-out: SSTR4 Activity pEC50 (converted). Here is the method: Inhibition of Forskolin Stimulated cAMP in Cells Overexpressing SSTR4
This cell-based assay measures the ability of compounds to inhibit forskolin stimulated cAMP in CHO-K1 cells overexpressing SSTR4. CHO-K1 cells overexpressing SSTR4 (CHO-SSTR4) are purchased from DiscoveRx (product code 95-0059C2). The CHO-SSTR4 cells are maintained in F12K media with 10% Fetal Bovine Serum (Hyclone), 1% Pen/Strep (Life Technologies), and 800 μg/mL G418 (Life Technologies). To perform the assay, 3000 cells are plated per well in white 384-well plate (Corning 3570) in 50 μL complete media and the cells are allowed to attach for 16 hours in a 37° C., 5% CO2 incubator. The next day, the culture media is removed from the cells and the cells are washed (added then removed) with Krebs Ringer Buffer (ZenBio, KRB-1000 mL). Test compounds are suspended in DMSO and diluted in stimulation buffer: Krebs Ringer Buffer plus 0.5% BSA (Roche), 300 μM IBMX (Sigma), and 350 nM forskolin (Sigma). The cells are incubated in 10 μL compound/stimulation buffer for 30 minutes at room temperature. Cellular cAMP levels are detected with a HTRF LANCE Ultra cAMP kit (Perkin Elmer, catalog number TRF0264).
The assay is performed in accordance with the manufacturer's instructions. Five μL of diluted Eu-W8044 labeled streptavidin (dilution: 1:50 in cAMP Detection Buffer) is added to each well. Then 5 μL of diluted biotin cAMP (dilution: 1:150 in cAMP Detection Buffer) is added to each well. The plates are covered and allowed to incubate for 60 minutes at room temperature on a shaker. HTRF (665 nm/615 nm) is read on a Perkin Elmer ENVISION plate reader. The pEC50 values are generated using Activity Base for Screening Data Management.

T2 sequence (P30872 whole entry): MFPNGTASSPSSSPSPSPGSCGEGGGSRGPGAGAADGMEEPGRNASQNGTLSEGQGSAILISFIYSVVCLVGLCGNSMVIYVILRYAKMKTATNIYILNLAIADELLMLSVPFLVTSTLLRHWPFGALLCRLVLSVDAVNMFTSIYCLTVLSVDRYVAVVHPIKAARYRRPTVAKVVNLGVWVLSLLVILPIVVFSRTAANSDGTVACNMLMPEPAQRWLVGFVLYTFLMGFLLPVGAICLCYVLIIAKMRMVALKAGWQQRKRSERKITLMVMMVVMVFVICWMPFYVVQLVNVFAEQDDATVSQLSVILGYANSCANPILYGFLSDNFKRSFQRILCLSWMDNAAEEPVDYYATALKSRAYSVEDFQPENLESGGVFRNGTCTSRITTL
T1 sequence (P31391 whole entry): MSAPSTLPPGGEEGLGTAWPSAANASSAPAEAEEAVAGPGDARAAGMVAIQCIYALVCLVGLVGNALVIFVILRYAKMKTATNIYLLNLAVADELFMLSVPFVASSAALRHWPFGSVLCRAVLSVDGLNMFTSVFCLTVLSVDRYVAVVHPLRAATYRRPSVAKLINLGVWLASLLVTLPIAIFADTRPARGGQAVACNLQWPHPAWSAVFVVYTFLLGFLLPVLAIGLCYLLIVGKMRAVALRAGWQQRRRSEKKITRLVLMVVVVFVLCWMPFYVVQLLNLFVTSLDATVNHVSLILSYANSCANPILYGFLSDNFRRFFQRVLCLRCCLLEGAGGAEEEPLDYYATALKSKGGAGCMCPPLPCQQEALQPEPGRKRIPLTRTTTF

For `Cc1cccnc1OCC(C)(C)NC(=O)CC12CCCN1CCC2` [Example 77, N-(2-methyl-1-((3-methylpyridin-2-yl)oxy)propan-2-yl)-2-(tetrahydro-1H-pyrrolizin-7a(5H)-yl)acetamide], the IC50 is 3160 nM in assay [1] and more than 50100 nM in assay [2]. Besides, the EC50 in assay [3] was 79.4 nM.
For `CC[C@@H](CN1CCC1)C(=O)N[C@H](c1ccccc1OC)C(F)F` [Example 189, (S)-2-(azetidin-1-ylmethyl)-N-((R)-2,2-difluoro-1-(2-methoxyphenyl)ethyl)butanamide], in that order: 7.94 nM, 631 nM and 1 nM.
For `CC[C@@H](CN1CCC1)C(=O)NC(C)(C)c1ccccc1F` (single isomer, unassigned) [Example 200], in that order: 25.1 nM, 5010 nM and 2 nM.
For `CN1CCC[C@@H]1CC(=O)NC(C)(C)c1nccc2ccccc12` [Example 16, (R)-N-(2-(isoquinolin-1-yl)propan-2-yl)-2-(1-methylpyrrolidin-2-yl)acetamide], in that order: 100 nM, 3160 nM and 12.6 nM.
Turning to `CC(CN1CCC1)C(=O)NC(C)(C)c1ccccc1Cl` (stereo not drawn) [Example 132, 3-(azetidin-1-yl)-N-(2-(2-chlorophenyl)propan-2-yl)-2-methylpropanamide], the IC50 in assay [1] was 79.4 nM; in assay [2] it was 20000 nM. In assay [3], the EC50 was 7.94 nM.
With `CN1CCC[C@@H]1CC(=O)NC(C)(C)COc1ncccc1C(F)(F)F` [Example 49, (R)-N-(2-methyl-1-((3-(trifluoromethyl)pyridin-2-yl)oxy)propan-2-yl)-2-(1-methylpyrrolidin-2-yl)acetamide], the IC50 in assay [1] is 200 nM; in assay [2] it was 15800 nM. In assay [3], the EC50 was 25.1 nM.
For `Cc1cnc(C(C)(C)NC(=O)CC2CCCCN2C)c2ccccc12` (stereo not drawn) [Example 42, N-(2-(4-methylisoquinolin-1-yl)propan-2-yl)-2-(1-methylpiperidin-2-yl)acetamide], the IC50 in assay [1] is 3.16 nM; in assay [2] it was 631 nM. Further, in assay [3], the EC50 was 0.794 nM.
For `CC(C)(COc1ncccc1C(F)F)NC(=O)CC12CCCN1CCC2` [Example 78, N-(1-((3-(difluoromethyl)pyridin-2-yl)oxy)-2-methylpropan-2-yl)-2-(tetrahydro-1H-pyrrolizin-7a(5H)-yl)acetamide], in that order: 10000 nM, more than 50100 nM and 251 nM.
For `CC[C@@H](CN1CCC1)C(=O)NC(C)(C)c1ccc(C)cc1` (single isomer, unassigned) [Example 187], in that order: 20 nM, 1580 nM and 0.794 nM.
For `C[C@H](CN1CCC1)C(=O)NC(C)(C)c1ccccc1F` (single isomer, unassigned) [Example 156], in that order: 100 nM, 20000 nM and 7.94 nM.
As for `Cc1cccc2c(C(C)(C)NC(=O)C[C@H]3CCCCN3C)nccc12` (single isomer, unassigned) [Example 8], the IC50 in assay [1] is 50.1 nM; in assay [2], 3980 nM. Besides, the EC50 in assay [3] was 2.51 nM.
As to `CN1CCCC[C@H]1CC(=O)NC(C)(C)c1nccc2occc12` (single isomer, unassigned) [Example 15], in assay [1], the IC50 was 316 nM. For the same molecule, the EC50 in assay [3] is 25.1 nM.
For `CN1CCCCC1CC(=O)NC(C)(C)c1nccc2occc12` (stereo not drawn) [Example 13, N-(2-(furo[3,2-c]pyridin-4-yl)propan-2-yl)-2-(1-methylpiperidin-2-yl)acetamide], in that order: 126 nM and 20 nM.
For `CCN1CCCC1CC(=O)NC1(COc2ncccc2C)CC1` (stereo not drawn) [Example 63, 2-(1-ethylpyrrolidin-2-yl)-N-(1-(((3-methylpyridin-2-yl)oxy)methyl)cyclopropyl)acetamide], in that order: 1580 nM and 63.1 nM.
Consider `COc1c(C)cccc1C(C)(C)NC(=O)[C@@H](C)CN1CCC1` (single isomer, unassigned) [Example 147], for which, in assay [1], the IC50 is 1580 nM. The EC50 in assay [3] was 63.1 nM.
With `Cc1cccnc1OCC1(NC(=O)C[C@@H]2CCCN2C)CC1` [Example 54, (S)-N-(1-(((3-methylpyridin-2-yl)oxy)methyl)cyclopropyl)-2-(1-methylpyrrolidin-2-yl)acetamide], the EC50 in assay [3] was 251 nM.
The same measure, in the same setting: the result for `Cc1cccc2c(C(C)(C)NC(=O)CC3N(C)CCC3(F)F)nccc12` (stereo not drawn) [Example 98, 2-(3,3-difluoro-1-methylpyrrolidin-2-yl)-N-(2-(5-methylisoquinolin-1-yl)propan-2-yl)acetamide] reads 158 nM; that for `Cc1c(F)cccc1C(C)(C)NC(=O)C[C@H]1CCCN1C` [Example 90, (R)-N-(2-(3-fluoro-2-methylphenyl)propan-2-yl)-2-(1-methylpyrrolidin-2-yl)acetamide], 63.1 nM.
The same measure, in the same setting: the same measure for `COc1c(F)cccc1C(C)(C)NC(=O)C[C@@H]1CCCN1C` [Example 114, (S)-N-(2-(3-fluoro-2-methoxyphenyl)propan-2-yl)-2-(1-methylpyrrolidin-2-yl)acetamide]: 251 nM.
As for `CN1CCC[C@H]1CC(=O)NC(C)(C)COc1ncccc1OC(F)(F)F` [Example 72, (S)-N-(2-methyl-1-((3-(trifluoromethoxy)pyridin-2-yl)oxy)propan-2-yl)-2-(1-methylpyrrolidin-2-yl)acetamide], the EC50 in assay [3] is 20 nM.
On the same count and under the same terms, the same measure for `C[C@H](CN1CCC1)C(=O)NC(C)(C)c1ccc(Cl)cc1` (single isomer, unassigned) [Example 154]: 1260 nM; for `COc1ncccc1CC1(NC(=O)CC2CCCCN2C)CC1` (stereo not drawn) [Example 79, N-(1-((2-methoxypyridin-3-yl)methyl)cyclopropyl)-2-(1-methylpiperidin-2-yl)acetamide]: 398 nM.
The same measure, in the same setting: the same measure for `CN1CCC[C@H]1CC(=O)NC(C)(C)COc1nccc2occc12` [Example 125, (S)-N-(1-(furo[3,2-c]pyridin-4-yloxy)-2-methylpropan-2-yl)-2-(1-methylpyrrolidin-2-yl)acetamide]: 126 nM; for `Cc1ccccc1C(C)(C)NC(=O)[C@@H](C)CN1CCC1` (single isomer, unassigned) [Example 141]: 398 nM.
On the same count and under the same terms, the same measure for `CN1CCC[C@H]1CC(=O)NC(C)(C)c1cc(Cl)ccc1Cl` [Example 33, (S)-N-(2-(2,5-dichlorophenyl)propan-2-yl)-2-(1-methylpyrrolidin-2-yl)acetamide]: 79.4 nM.
